Source: ChEMBL document CHEMBL5113463, “Discovery and preclinical evaluations of JBD0131, a novel nitrodihydro-imidazooxazole anti-tuberculosis agent” (Bioorg Med Chem Lett, 2022)
In brackets after ≈: the same amount, converted by molar mass.

Key:
[1] = target: Voltage-gated inwardly rectifying potassium channel KCNH2 (Homo sapiens, UniProt Q12809); assay: Inhibition of human ERG; assay type: toxicity
[2] = Metabolic stability in human assessed as half life; assay type: ADME
[3] = Metabolic stability in human liver microsomes assessed as half life; assay type: ADME, Microsome
[4] = Metabolic stability in rat liver microsomes assessed as half life; assay type: ADME, Microsome
[5] = Metabolic stability in mouse liver microsomes assessed as half life; assay type: ADME, Microsome
[6] = test system: Mycobacterium tuberculosis; assay: Antimycobacterial activity against Mycobacterium tuberculosis H37Rv assessed as bacterial growth inhibition incubated for 7 days by MABA assay; assay type: functional; settings: 168 h, time 7 day
[7] = test system: Mycobacterium tuberculosis; assay: Antimycobacterial activity against Mycobacterium tuberculosis H37Rv assessed as bacterial growth inhibition incubated for 10 days under hypoxic condition followed by 28 hrs incubation under normoxic condition by Low-Oxygen-Recovery Assay; assay type: functional; settings: 264 h, time 11 day
[8] = Cytotoxicity against African green monkey vero cells assessed as reduction in cell viability; assay type: toxicity, cell-based; settings: chlorocebus sabaeus
[9] = target: Voltage-dependent L-type calcium channel subunit alpha-1C (Homo sapiens, UniProt Q13936); assay: Inhibition of human Cav1.2
[10] = target: T1, A-type voltage-gated potassium channel KCND3 (Homo sapiens, UniProt Q9UK17); assay: Inhibition of Kv4.3 (unknown origin)
T1 sequence (Q9UK17 whole entry): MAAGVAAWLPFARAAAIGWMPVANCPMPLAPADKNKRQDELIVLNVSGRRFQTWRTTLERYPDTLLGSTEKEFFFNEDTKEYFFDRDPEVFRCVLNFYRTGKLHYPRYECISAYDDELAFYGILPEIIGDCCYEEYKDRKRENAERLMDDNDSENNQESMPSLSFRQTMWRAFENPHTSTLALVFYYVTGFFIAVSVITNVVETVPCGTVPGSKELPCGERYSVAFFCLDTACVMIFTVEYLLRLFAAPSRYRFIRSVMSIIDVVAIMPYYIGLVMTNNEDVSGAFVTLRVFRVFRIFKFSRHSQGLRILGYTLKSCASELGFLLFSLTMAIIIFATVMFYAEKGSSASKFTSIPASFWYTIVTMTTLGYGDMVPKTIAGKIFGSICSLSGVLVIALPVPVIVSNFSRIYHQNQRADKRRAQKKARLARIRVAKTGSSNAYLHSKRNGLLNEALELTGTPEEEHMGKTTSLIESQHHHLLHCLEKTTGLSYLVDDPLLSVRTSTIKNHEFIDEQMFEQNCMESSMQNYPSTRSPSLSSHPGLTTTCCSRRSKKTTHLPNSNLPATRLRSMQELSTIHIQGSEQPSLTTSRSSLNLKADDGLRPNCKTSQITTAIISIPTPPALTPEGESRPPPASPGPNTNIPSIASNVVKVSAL

[11] = target: Sodium channel protein type 5 subunit alpha (Homo sapiens, UniProt Q14524); assay: Inhibition of NaV 1.5 (unknown origin)
[12] = Half life in Sprague-Dawley rat at 1 mg/kg, iv; assay type: ADME, organism-based; settings: in vivo
[13] = Cmax in Sprague-Dawley rat at 4 mg/kg, po; assay type: ADME, organism-based; design: dose 4 mg/kg, route po; settings: in vivo
[14] = AUC (0-last) in Sprague-Dawley rat at 4 mg/kg, po; assay type: ADME, organism-based; settings: in vivo
[15] = Half life in Beagle dog at 0.5 mg/kg, iv; assay type: ADME, organism-based, Canis lupus familiaris; settings: in vivo
[16] = Cmax in Beagle dog at 2 mg/kg, po; assay type: ADME, organism-based, Canis lupus familiaris; design: dose 2 mg/kg, route po; settings: in vivo
[17] = AUC (0-last) in Beagle dog at 2 mg/kg, po; assay type: ADME, organism-based, Canis lupus familiaris; settings: in vivo
[18] = test system: Mycobacterium tuberculosis; assay: Antimycobacterial activity against clinical isolate drug susceptible Mycobacterium tuberculosis H37Rv assessed as bacterial growth inhibition; assay type: functional
[19] = Clearance in CD-1 mouse at 0.6 mg/kg, iv; assay type: ADME, organism-based; settings: in vivo
[20] = Volume of distribution in CD-1 mouse at 0.6 mg/kg, iv; assay type: ADME, organism-based; settings: in vivo
[21] = Half life in CD-1 mouse at 0.6 mg/kg, iv; assay type: ADME, organism-based; settings: in vivo
[22] = Cmax in CD-1 mouse at 5 mg/kg, po; assay type: ADME, organism-based; design: dose 5 mg/kg, route po; settings: in vivo
[23] = AUC (0-last) in CD-1 mouse at 5 mg/kg, po; assay type: ADME, organism-based; design: dose 5 mg/kg, route po; settings: in vivo
[24] = Oral bioavailability in CD-1 mouse at 5 mg/kg; assay type: ADME, organism-based; settings: in vivo

Voltage-gated inwardly rectifying potassium channel KCNH2, sequence (Q12809 whole entry): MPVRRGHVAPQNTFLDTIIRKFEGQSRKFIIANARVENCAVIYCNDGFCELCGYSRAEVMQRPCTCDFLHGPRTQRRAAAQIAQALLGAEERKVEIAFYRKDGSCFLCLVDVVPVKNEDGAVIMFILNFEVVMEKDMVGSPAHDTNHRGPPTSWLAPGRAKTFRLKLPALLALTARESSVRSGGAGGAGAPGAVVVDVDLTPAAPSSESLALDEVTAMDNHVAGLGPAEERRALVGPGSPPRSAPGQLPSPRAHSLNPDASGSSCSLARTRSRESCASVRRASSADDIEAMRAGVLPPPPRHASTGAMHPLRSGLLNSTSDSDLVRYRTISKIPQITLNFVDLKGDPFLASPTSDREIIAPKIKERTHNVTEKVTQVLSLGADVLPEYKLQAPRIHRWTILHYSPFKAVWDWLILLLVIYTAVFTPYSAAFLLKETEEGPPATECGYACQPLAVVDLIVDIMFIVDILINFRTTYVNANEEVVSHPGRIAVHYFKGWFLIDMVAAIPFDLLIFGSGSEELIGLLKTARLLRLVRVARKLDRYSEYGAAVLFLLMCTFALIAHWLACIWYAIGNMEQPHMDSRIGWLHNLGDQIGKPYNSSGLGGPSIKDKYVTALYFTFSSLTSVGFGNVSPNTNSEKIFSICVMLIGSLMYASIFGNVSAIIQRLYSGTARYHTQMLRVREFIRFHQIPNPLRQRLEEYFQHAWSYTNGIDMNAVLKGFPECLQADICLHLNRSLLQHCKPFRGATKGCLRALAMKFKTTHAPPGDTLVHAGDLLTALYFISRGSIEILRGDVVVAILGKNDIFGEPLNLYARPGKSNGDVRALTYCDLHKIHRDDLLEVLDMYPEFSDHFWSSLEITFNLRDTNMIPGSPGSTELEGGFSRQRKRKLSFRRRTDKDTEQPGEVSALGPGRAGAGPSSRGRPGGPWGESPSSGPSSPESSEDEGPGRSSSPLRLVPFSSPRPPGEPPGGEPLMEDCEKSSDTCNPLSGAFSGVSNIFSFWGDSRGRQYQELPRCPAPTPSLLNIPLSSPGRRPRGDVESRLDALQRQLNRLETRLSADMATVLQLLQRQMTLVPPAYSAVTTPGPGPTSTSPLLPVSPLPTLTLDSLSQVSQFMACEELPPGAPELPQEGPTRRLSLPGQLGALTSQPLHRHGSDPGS
Sodium channel protein type 5 subunit alpha, sequence (Q14524 whole entry): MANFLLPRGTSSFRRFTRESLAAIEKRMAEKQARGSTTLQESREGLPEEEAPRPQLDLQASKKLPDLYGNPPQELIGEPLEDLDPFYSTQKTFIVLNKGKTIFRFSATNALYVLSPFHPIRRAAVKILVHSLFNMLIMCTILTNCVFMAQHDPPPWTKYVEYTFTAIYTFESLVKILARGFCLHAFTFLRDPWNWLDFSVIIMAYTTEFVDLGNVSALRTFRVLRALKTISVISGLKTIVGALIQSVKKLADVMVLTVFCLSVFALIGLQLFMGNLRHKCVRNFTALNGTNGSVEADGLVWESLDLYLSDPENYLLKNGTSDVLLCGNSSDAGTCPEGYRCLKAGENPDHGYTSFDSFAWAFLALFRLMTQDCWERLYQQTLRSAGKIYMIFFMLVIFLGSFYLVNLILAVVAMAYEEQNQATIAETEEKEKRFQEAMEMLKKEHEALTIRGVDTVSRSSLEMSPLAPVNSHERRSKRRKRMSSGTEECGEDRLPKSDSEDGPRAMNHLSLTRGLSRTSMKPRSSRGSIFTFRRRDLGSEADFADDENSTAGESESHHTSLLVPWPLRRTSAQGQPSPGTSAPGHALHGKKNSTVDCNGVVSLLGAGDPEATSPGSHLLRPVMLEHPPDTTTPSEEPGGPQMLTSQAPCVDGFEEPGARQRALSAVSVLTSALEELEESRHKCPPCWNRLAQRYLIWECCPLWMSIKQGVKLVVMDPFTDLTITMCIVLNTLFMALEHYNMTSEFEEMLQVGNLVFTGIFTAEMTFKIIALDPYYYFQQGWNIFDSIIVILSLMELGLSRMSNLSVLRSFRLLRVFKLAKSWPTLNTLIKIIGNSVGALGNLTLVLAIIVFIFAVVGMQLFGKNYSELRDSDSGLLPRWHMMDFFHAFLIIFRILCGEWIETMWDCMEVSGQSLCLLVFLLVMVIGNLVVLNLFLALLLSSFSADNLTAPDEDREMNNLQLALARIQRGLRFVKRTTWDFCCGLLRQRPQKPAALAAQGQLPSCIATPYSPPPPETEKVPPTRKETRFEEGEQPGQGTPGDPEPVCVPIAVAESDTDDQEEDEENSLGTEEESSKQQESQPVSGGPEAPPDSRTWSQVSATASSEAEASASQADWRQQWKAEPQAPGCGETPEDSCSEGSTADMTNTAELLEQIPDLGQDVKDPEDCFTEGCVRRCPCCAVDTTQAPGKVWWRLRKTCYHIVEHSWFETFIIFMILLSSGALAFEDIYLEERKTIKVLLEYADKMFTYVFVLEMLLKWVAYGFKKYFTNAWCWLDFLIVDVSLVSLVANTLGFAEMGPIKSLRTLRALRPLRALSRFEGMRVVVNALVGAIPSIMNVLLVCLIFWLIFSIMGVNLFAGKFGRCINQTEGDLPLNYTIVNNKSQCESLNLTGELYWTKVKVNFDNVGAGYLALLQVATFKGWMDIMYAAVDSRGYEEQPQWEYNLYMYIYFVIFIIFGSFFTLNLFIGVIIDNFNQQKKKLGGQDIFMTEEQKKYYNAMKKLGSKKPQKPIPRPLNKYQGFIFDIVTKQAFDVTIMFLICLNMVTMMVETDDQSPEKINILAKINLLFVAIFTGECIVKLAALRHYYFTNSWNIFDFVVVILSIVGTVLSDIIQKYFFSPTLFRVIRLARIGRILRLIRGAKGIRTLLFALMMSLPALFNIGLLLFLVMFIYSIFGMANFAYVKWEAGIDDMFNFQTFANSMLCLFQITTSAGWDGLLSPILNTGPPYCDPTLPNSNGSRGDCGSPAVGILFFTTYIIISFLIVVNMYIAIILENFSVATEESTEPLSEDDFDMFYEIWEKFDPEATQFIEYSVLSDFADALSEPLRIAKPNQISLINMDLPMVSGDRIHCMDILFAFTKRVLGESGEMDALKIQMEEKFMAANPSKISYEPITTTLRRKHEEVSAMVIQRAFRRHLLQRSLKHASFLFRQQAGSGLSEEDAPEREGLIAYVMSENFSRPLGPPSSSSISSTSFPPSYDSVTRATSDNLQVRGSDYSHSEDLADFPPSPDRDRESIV

C[C@]1(COc2ccc(N3CCC(Oc4ccc(OC(F)(F)F)cc4)CC3)cc2)CN=C(N)O1 [DM-6705]
IC50 [1]: 0.082 µM
half-life [2]: 122 h

C[C@]1(CN2CCc3nc(-c4ccc(F)cc4)ccc3C2)Cn2cc([N+](=O)[O-])nc2O1
half-life [3]: 25 min
half-life [4]: 6 min
half-life [5]: 22 min
MIC [6]: < 0.031 µg/mL
MIC [7]: 4.83 µg/mL (≈ 11.8 µM)
CC50 [8]: > 32 µg/mL

C[C@]1(CN2Cc3nc(-c4ccc(F)cc4)sc3C2)Cn2cc([N+](=O)[O-])nc2O1
IC50 [1]: 1.69 µM
IC50 [9]: 13.3 µM
IC50 [10]: > 40 µM
IC50 [11]: 12.9 µM
half-life [12]: 279 min
Cmax [13]: 57.9 nM
AUClast [14]: 574 ng·h
half-life [15]: 918 min
Cmax [16]: 5.82 nM
AUClast [17]: 166 ng·h

NC[C@H]1O[C@H](O[C@H]2[C@H](O)[C@@H](O[C@H]3O[C@H](CO)[C@@H](O)[C@H](N)[C@H]3O)[C@H](N)C[C@@H]2N)[C@H](O)[C@@H](O)[C@@H]1O [KANAMYCIN]
MIC50 [18]: 1.22 µg/mL (≈ 2.52 µM)
MIC90 [18]: 1.91 µg/mL (≈ 3.94 µM)

C[C@]1(CN2Cc3nc(-c4ccc(F)cc4)oc3C2)Cn2cc([N+](=O)[O-])nc2O1
half-life [3]: 59 min
half-life [4]: 39 min
half-life [5]: 43 min
MIC [6]: 0.021 µg/mL (≈ 0.0545 µM)
CC50 [8]: > 32 µg/mL

C[C@]1(CN2Cc3nc(-c4ccc(F)cn4)sc3C2)Cn2cc([N+](=O)[O-])nc2O1
MIC [6]: 0.03 µg/mL (≈ 0.0746 µM)
CC50 [8]: > 32 µg/mL
clearance [19]: 12.7 mL/min/kg
Vd [20]: 2.02 L/kg
half-life [21]: 103 min
Cmax [22]: 385 ng/mL
AUC(0-t) ([23]; CD-1, mouse): 2920 ng·h/mL
bioavailability ([24]; CD-1, mouse): 24.5%

Cc1cc(F)ccc1-c1nc2c(s1)CN(C[C@@]1(C)Cn3cc([N+](=O)[O-])nc3O1)C2
MIC [6]: < 0.013 µg/mL
CC50 [8]: > 32 µg/mL
Vd [20]: 3.38 L/kg
half-life [21]: 124 min
Cmax [22]: 201 ng/mL
AUClast ([23]; mouse): 1441 ng·h/mL
F ([24]; mouse, po, 5 mg/kg): 20.5%
